Read-outs that look alike come from different tables or passages of the source.
Assay: Ex vivo biodistribution of 177Lu-labeled ligands in PC-3 tumor-bearing mice
Conditions: mouse, intravenous; for tissue uptake at 1 h: 1 h pi; for tissue uptake at 4 h: 4 h pi; for tissue uptake at 24 h: 24 h pi; for tissue uptake at 72 h: 72 h pi
Experimental: SPECT/CT imaging was conducted using an MI Labs (Houten, The Netherlands) U-SPECT-II/CT scanner with a custom-made ultra-high sensitivity big mouse collimator (2 mm pinhole size) following published procedure. The experiments were obtained in accordance with the same protocol established in the PET/CT imaging and ex vivo biodistributions section. The mice were used for SPECT/CT imaging and ex vivo biodistributions studies once the tumors reached a diameter of 5–8 mm. PC-3 tumor-bearing mice were sedated (2.5% isoflurane in O2) and injected with 31.4–36.9 MBq of the ^177Lu-labeled ligand through a lateral caudal tail vein. The mouse was imaged at 1, 4, 24, 72, and 120 h pi. At each time point, a 5 min CT scan was performed with 615 μA and 60 kV parameters for localization and attenuation, followed by two 30 min static SPECT scans in list mode with an energy window centered around 208 keV. The U-SPECT II software was used to reconstruct data, and the images were decay corrected to the time of injection with PMOD v 3.402 (PMOD Technologies GmbH, Fallanden, Switzerland).
For ex vivo biodistribution studies, the mice were injected with ~3–5 MBq of the ^177Lu-labeled ligand (n = 5). At 1, 4, 24, 72, and 120 h post-injection, the mice were anesthetized with 2% isoflurane, euthanized by CO2 inhalation, and the tissues/organs of interest were […] for radioactivity counting. The blocking study was performed at 1 h pi via co-injection of the ^177Lu-labeled ligand with 100 μg of [D-Phe^6,Leu-NHEt^13,des-Met^14]Bombesin(6–14).

[1] = kidneys, n = 5, read-out: Kidneys uptake
[2] = large intestine, n = 5, read-out: Large intestine uptake
[3] = liver, n = 5, read-out: Liver uptake
[4] = lungs, n = 5, read-out: Lungs uptake
[5] = muscle, n = 5, read-out: Muscle uptake
[6] = pancreas, n = 5, read-out: Pancreas uptake
[7] = small intestine, n = 5, read-out: Small intestine uptake
[8] = spleen, n = 5, read-out: Spleen uptake
[9] = stomach, n = 5, read-out: Stomach uptake
[10] = testes, n = 5, read-out: Testes uptake

tissue uptake at 120 h (heart, 120 h pi, n = 5, read-out: Heart uptake): 0.01 ± 0.01 %ID/g
tissue uptake at 1 h (kidneys, 100 ug, blocked (100 µg GRPR antagonist co-injected), read-out: Kidneys uptake): 4.17 ± 0.95 %ID/g
tissue uptake at 1 h [1]: 2.65 ± 0.48 %ID/g
tissue uptake at 4 h [1]: 1.88 ± 0.35 %ID/g
tissue uptake at 24 h [1]: 0.89 ± 0.28 %ID/g
tissue uptake at 72 h [1]: 0.26 ± 0.08 %ID/g
tissue uptake at 120 h (kidneys, 120 h pi, n = 5, read-out: Kidneys uptake): 0.12 ± 0.03 %ID/g
tissue uptake at 1 h (large intestine, 100 ug, blocked (100 µg GRPR antagonist co-injected), read-out: Large intestine uptake): 0.21 ± 0.09 %ID/g
tissue uptake at 1 h [2]: 0.17 ± 0.09 %ID/g
tissue uptake at 4 h [2]: 0.34 ± 0.04 %ID/g
tissue uptake at 24 h [2]: 0.15 ± 0.06 %ID/g
tissue uptake at 72 h [2]: 0.06 ± 0.02 %ID/g
tissue uptake at 120 h (large intestine, 120 h pi, n = 5, read-out: Large intestine uptake): 0.02 ± 0.01 %ID/g
tissue uptake at 1 h (liver, 100 ug, blocked (100 µg GRPR antagonist co-injected), read-out: Liver uptake): 0.33 ± 0.08 %ID/g
tissue uptake at 1 h [3]: 0.27 ± 0.1 %ID/g
tissue uptake at 4 h [3]: 0.2 ± 0.08 %ID/g
tissue uptake at 24 h [3]: 0.09 ± 0.01 %ID/g
tissue uptake at 72 h [3]: 0.04 ± 0.01 %ID/g
tissue uptake at 120 h (liver, 120 h pi, n = 5, read-out: Liver uptake): 0.03 ± 0.01 %ID/g
tissue uptake at 1 h (lungs, 100 ug, blocked (100 µg GRPR antagonist co-injected), read-out: Lungs uptake): 0.45 ± 0.22 %ID/g
tissue uptake at 1 h [4]: 0.43 ± 0.04 %ID/g
tissue uptake at 4 h [4]: 0.13 ± 0.08 %ID/g
tissue uptake at 24 h [4]: 0.05 ± 0.03 %ID/g
tissue uptake at 72 h [4]: 0.02 %ID/g
tissue uptake at 120 h (lungs, 120 h pi, n = 5, read-out: Lungs uptake): 0.05 ± 0.03 %ID/g
tissue uptake at 1 h (muscle, 100 ug, blocked (100 µg GRPR antagonist co-injected), read-out: Muscle uptake): 0.15 ± 0.04 %ID/g
tissue uptake at 1 h [5]: 0.06 ± 0.01 %ID/g
tissue uptake at 4 h [5]: 0.01 %ID/g
tissue uptake at 24 h [5]: 0.01 %ID/g
tissue uptake at 1 h (pancreas, 100 ug, blocked (100 µg GRPR antagonist co-injected), read-out: Pancreas uptake): 0.34 ± 0.09 %ID/g
tissue uptake at 1 h [6]: 0.39 ± 0.08 %ID/g
tissue uptake at 4 h [6]: 0.06 ± 0.02 %ID/g
tissue uptake at 24 h [6]: 0.04 ± 0.01 %ID/g
tissue uptake at 72 h [6]: 0.01 %ID/g
tissue uptake at 120 h (pancreas, 120 h pi, n = 5, read-out: Pancreas uptake): 0.01 %ID/g
tissue uptake at 120 h (pancreas, all time points (1, 4, 24, 72, 120 h pi), read-out: pancreas uptake): < 0.5 %ID/g
tissue uptake at 1 h (small intestine, 100 ug, blocked (100 µg GRPR antagonist co-injected), read-out: Small intestine uptake): 0.48 ± 0.18 %ID/g
tissue uptake at 1 h [7]: 0.28 ± 0.03 %ID/g
tissue uptake at 4 h [7]: 0.07 ± 0.03 %ID/g
tissue uptake at 24 h [7]: 0.03 ± 0.01 %ID/g
tissue uptake at 72 h [7]: 0.01 %ID/g
tissue uptake at 120 h (small intestine, 120 h pi, n = 5, read-out: Small intestine uptake): 0.01 %ID/g
tissue uptake at 1 h (spleen, 100 ug, blocked (100 µg GRPR antagonist co-injected), read-out: Spleen uptake): 0.16 ± 0.05 %ID/g
tissue uptake at 1 h [8]: 0.14 ± 0.04 %ID/g
tissue uptake at 4 h [8]: 0.07 ± 0.01 %ID/g
tissue uptake at 24 h [8]: 0.07 ± 0.02 %ID/g
tissue uptake at 72 h [8]: 0.04 ± 0.01 %ID/g
tissue uptake at 120 h (spleen, 120 h pi, n = 5, read-out: Spleen uptake): 0.03 %ID/g
tissue uptake at 1 h (stomach, 100 ug, blocked (100 µg GRPR antagonist co-injected), read-out: Stomach uptake): 0.26 ± 0.14 %ID/g
tissue uptake at 1 h [9]: 0.08 ± 0.04 %ID/g
tissue uptake at 4 h [9]: 0.02 %ID/g
tissue uptake at 24 h [9]: 0.07 ± 0.04 %ID/g
tissue uptake at 72 h [9]: 0.02 ± 0.01 %ID/g
tissue uptake at 120 h (stomach, 120 h pi, n = 5, read-out: Stomach uptake): 0.01 ± 0.01 %ID/g
tissue uptake at 1 h (testes, 100 ug, blocked (100 µg GRPR antagonist co-injected), read-out: Testes uptake): 0.22 ± 0.09 %ID/g
tissue uptake at 1 h [10]: 0.2 ± 0.04 %ID/g
tissue uptake at 4 h [10]: 0.03 ± 0.01 %ID/g
tissue uptake at 24 h [10]: 0.03 ± 0.01 %ID/g
tissue uptake at 72 h [10]: 0.01 %ID/g
tissue uptake at 120 h (testes, 120 h pi, n = 5, read-out: Testes uptake): 0.01 %ID/g
SMILES: CC(C)C[C@@H](CN1CC(F)(F)C[C@H]1C(N)=O)NC(=O)[C@H](Cc1c[nH]cn1)NC(=O)CN(C)C(=O)[C@@H](NC(=O)[C@H](C)NC(=O)[C@H](Cc1c[nH]c2ccccc12)NC(=O)[C@H](CCC(N)=O)NC(=O)[C@@H](Cc1ccccc1)NC(=O)CN1CCC(NC(=O)CN2CCN(CC(=O)O)CCN(CC(=O)O)CCN(CC(=O)O)CC2)CC1)C(C)C [[^177Lu]Lu-LW02080, metal not drawn]

From publication PMC11859184, “Synthesis and Evaluation of ^68Ga- and ^177Lu-Labeled [diF-Pro^14]Bombesin(6−14) Analogs for Detection and Radioligand Therapy of Gastrin-Releasing Peptide Receptor-Expressing Cancer” (Pharmaceuticals, 2025)
